Source: patent US9359451B2, “Methods and compositions for treating trauma-hemorrhage using estrogen and derivatives thereof” (THE UAB RESEARCH FOUNDATION, priority 2012, dated 2016)
Entries after “also recorded” stand apart in the source; their conditions may differ.

Columns and labels:
hind limb motor function = assay: Spinal cord injury: grading of motor disturbance (modified BBB scale); format: in vivo, mouse; conditions: every day for 10 days after SCI; pre or post treatment with 17β-estradiol; ICI 182,780: co-administered with 17β-estradiol
Procedure: Mice were anaesthetized using chloral hydrate (400 mg/kg body weight) (Genovese 2006). A longitudinal incision was made on the midline of the back, exposing the paravertebral muscles. These muscles were dissected away exposing T5-T8 vertebrae. The spinal cord was exposed via a four-level T6-T7 laminectomy and SCI was produced by extradural compression using an aneurysm clip with a closing force of 24 g. Following surgery, 1 ml of saline was administered subcutaneously in order to replace the blood volume lost during surgery. During the surgery and recovery from anesthesia, the mice were placed on a warm heating pad and covered with a warm towel. […] Food and water were provided to the mice ad libitum. During this time period, the animals' bladders were manually voided twice a day until the mice were able to regain normal bladder function. In all injured groups, the spinal cord was compressed for 1 min. Sham-injured animals were only subjected to laminectomy. […] In the experiments regarding the motor score, the animals from all the experimental groups were observed and treated daily for 9 days after SCI. At different time points (see FIG. 30), the mice (n=10 from each group for each of the 3 time points) were sacrificed in order to evaluate the various parameters as described below. […] The motor function of mice subjected to compression trauma was assessed once a day for 10 days after injury. […]

Bax and Bcl-2 = assay: Spinal cord injury: Western blot analysis for Bax and Bcl-2; format: in vivo, mouse; conditions: 24 h after SCI; ICI 182,780: co-administered with 17β-estradiol
Procedure: Mice were anaesthetized using chloral hydrate (400 mg/kg body weight) (Genovese 2006). A longitudinal incision was made on the midline of the back, exposing the paravertebral muscles. These muscles were dissected away exposing T5-T8 vertebrae. The spinal cord was exposed via a four-level T6-T7 laminectomy and SCI was produced by extradural compression using an aneurysm clip with a closing force of 24 g. Following surgery, 1 ml of saline was administered subcutaneously in order to replace the blood volume lost during surgery. During the surgery and recovery from anesthesia, the mice were placed on a warm heating pad and covered with a warm towel. […] Food and water were provided to the mice ad libitum. During this time period, the animals' bladders were manually voided twice a day until the mice were able to regain normal bladder function. In all injured groups, the spinal cord was compressed for 1 min. Sham-injured animals were only subjected to laminectomy. […] In the experiments regarding the motor score, the animals from all the experimental groups were observed and treated daily for 9 days after SCI. At different time points (see FIG. 30), the mice (n=10 from each group for each of the 3 time points) were sacrificed in order to evaluate the various parameters as described below. […] After 1 hour, tissue lysates were obtained by centrifugation at 100,000×g for 15 min at 4° C. Protein concentrations were estimated by the Bio-Rad protein assay (Bio-Rad Laboratories, Segrate, Milan, Italy) using BSA as standard. […] The blot was performed by transferring proteins from a slab gel to nitrocellulose membrane at 240 mA for 40 min at room temperature. […] The AffiniPure Goat Anti-Rabbit IgG coupled to peroxidase secondary antibody (1:2000; Jackson Immuno Research, Laboratories, Inc., CA, USA) was incubated for 1 hour at room temperature. Subsequently, the blot was extensively washed with PBS, developed using SuperSignal West Pico chemiluminescence Substrate (PIERCE, Milan, Italy), according to the manufacturer's instructions, and exposed to Kodak X-Omat film (Eastman Kodak Co., Rochester, N.Y.). α-Tubulin protein (Sigma; 1:1000) Western blot was performed to ensure equal sample loading. The protein bands of Bax (23˜kDa), or Bcl-2 (26˜kDa) on x-ray film were scanned and densitometrically analyzed with a model GS-700 imaging densitometer (Bio-Rad Laboratories). To ascertain that blots were loaded with equal amounts of protein lysates, they were also incubated in the presence of the antibody against α-tubulin protein (1:10,000 Sigma-Aldrich Corp.). The densitometric data for Western are normalized for loading control values.

Row | SMILES | hind limb motor disturbance (BBB score) (hind limb motor function) | Bax levels (Western blot) (Bax and Bcl-2) | Bcl-2 expression (Western blot) (Bax and Bcl-2)
1 | C[C@]12CC[C@@H]3c4ccc(O)cc4CC[C@H]3[C@@H]1CC[C@@H]2O [17β-estradiol] | significant amelioration of hind limb motor disturbances; also recorded: reduces the motor disturbance after SCI | prevented the SCI-induced Bax expression; also recorded: Bax band disappeared | significantly reduced the SCI-induced inhibition of Bcl-2 expression; also recorded: Bcl-2 band is more evident
2 | C[C@]12CC[C@@H]3c4ccc(O)cc4C[C@@H](CCCCCCCCC[S+]([O-])CCCC(F)(F)C(F)(F)F)[C@H]3[C@@H]1CC[C@@H]2O (stereo partly drawn) [ICI 182,780] | significantly blocked the effect of the 17β-estradiol | significantly blocked the effect of the 17β-estradiol; also recorded: Bax band is more evident in comparison with the band present in the tissue from 17β-estradiol-treated mice | significantly blocked the effect of the 17β-estradiol; also recorded: BCL2 band is less evident
